Where “and” joins values, the source holds several entries; their conditions need not be identical. Equal entries are not always repeated.

The test concerns OVCAR-5 complex spheroid (HUVEC/MSC), viability % T/C. The test is described as follows: Anticancer human tumor OVCAR-5 cell line growth inhibition [Asc].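 For all read-outs here: spheroids exposed to agents for 7 days before readout.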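 For viability, T/C: 100% = DMSO vehicle-treated wells.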 Conditions: for viability, T/C: stronger effect = lower value. On the procedure: Multicellular complex tumor spheroid response to apoptosis pathway targeting inhibitors Alrizomadlin, Pelcitoclax, and Dasminapant in combination with a variety of drugs and investigational agents in selected tumor cell lines
The MDM2 inhibitor alrizomadlin, the Bcl-2/Bcl-xL inhibitor pelcitoclax, and the IAPs inhibitor dasminapant were evaluated both individually and in combination with standard of care and investigational anticancer small molecules within a complex spheroid model of solid tumors. . Complex spheroids include a stromal component modeled by human endothelial cells (HUVEC) and fibroblasts modeled by human mesenchymal stem cells (MSCs). The concentration ranges selected for each drug and investigational agent were based upon clinically achievable concentrations if the clinical Cmax of the agent was known.
Compounds. The drugs and investigational agents: alrizomadlin (APG-115; NSC831270), pelcitoclax (APG-1252; NSC835773), dasminapant (APG-1387;NSC834197), TAK-243 (NSC785004), copanlisib (NSC809693), olaparib (NSC753686), talazoparib (NSC767125), cobimetinib (NSC 768068), eltanexor (KPT-8602, NSC 794443), abemaciclib (NSC 768073), sotorasib (NSC818433), adagrasib (NSC 831453), MRTX-1133 (NSC 836407), Iadademestat (ORY1001, NSC 806812), and RMC-4630 (NSC839698), were obtained from the NCI Developmental Therapeutics Program Chemical Repository. The FDA-approved anticancer drug set is available from the Developmental Therapeutics Program at https://dtp.cancer.gov/organization/dscb/obtaining/available plates.htm. […] The stock solutions were prepared in dimethyl sulfoxide (DMSO, Sigma-Aldrich, St. Louis, MO, cat. D2650) at 800-fold the tested concentration and stored at -70 degrees C prior to their use. All drugs and investigational agents were tested over a range starting from a high concentration at or near the clinical Cmax and decreasing in half-log increments. If the clinical Cmax for an agent had not been determined, the highest concentration tested was 10 microM.
The patient-derived cancer (PDC) cell lines include five colon adenocarcinomas: 186277-243-T-J2-PDC, 616215-338-R-J1-PDC, 439559-082-T-J2-PDC, 463943-066-T-J2-PDC, and 519858-162-T-J1-PDC; three pancreatic carcinomas: 323965-272-R-J2-PDC, 521955-158-R6-J3-PDC, and 521955-158-R2-J5-PDC; two uterine sarcomas: 327498-152-R-J2-PDC and 993429-296-R-J1-PDC; two rhabdomyosarcomas: 755483-174-R-J1-PDC and 772245-204-R-J1-PDC; two soft tissue sarcomas: 126254-015-R-J1-PDC and 494315-158-R-J1-PDC; two malignant fibrous histiocytomas: 317291-083-R-J1-PDC and 596521-263-R-J1-PDC; two breast carcinomas: 171881-019-R-J1-PDC and 885512-296-R-J2-PDC; and one ovarian carcinoma: 6556581-035-R-J-PDC were obtained from the NCI PDMR, (https://pdmr.cancer.gov). The established cell lines HSSY-2 synovial sarcoma (RRID:CVCL 8719), SYO-1 synovial sarcoma (RRID:CVCL_7146), MPNST malignant peripheral neural sheath tumor were obtained from the Sloan Kettering Institute. The following established cell lines were purchased from the American Type Culture Collection (ATCC, Manassas, VA), Sor the received from the NCI repository:, PANC-1 pancreatic carcinoma (CRL-1469, RRID:CVCL_0480), OVCAR-5 ovarian carcinoma (RRID:CVCL_1628), OVCAR-8 ovarian carcinoma (RRID:CVCL_1629), , MCF-7 breast carcinoma (CRL-12584, RRID:CVCL_0031), MDA-MB-231 breast carcinoma (CRL-12532, RRID:CVCL_0062), NCI-H1876 small cell lung carcinoma (CRL-5902, RRID:CVCL_1503), NCI-H510A small cell lung carcinoma (HTB-184, RRID:CVCL_1565), NCI-H1417 (CRL-5869, RRID:CVCL_1469), and NCI-H196 small cell lung carcinoma (CRL-5823, RRID:CVCL_1509). Dr. Peter Houghton (Greehey Children's Cancer Research Institute, University of Texas Health Science Center, San Antonio, TX) provided Rh-18 rhabdomyosarcoma (RRID:CVCL_1659). Pooled donor human umbilical vein endothelial cells (HUVEC, Lonza, cat. CC-2519) and human mesenchymal stem cells (hMSC, Lonza, cat. PT-2501) were purchased from Lonza (Walkersville, MD).
Cell Culture. […]

Where [1] appears, read: curve of first compound, second compound 0.1 µM.
The mark [2] stands for this setting: curve of first compound, second compound 0.316 µM.
[3] abbreviates: curve of first compound, second compound 1 µM.
[4] abbreviates: second compound 0.1 µM, first compound 0.00949 µM.
Setting [5] is: second compound 0.1 µM, first compound 0.03 µM.
[6] abbreviates: second compound 0.1 µM, first compound 0.0949 µM.
The mark [7] stands for this setting: second compound 0.1 µM, first compound 0.3 µM.
Setting [8] is: second compound 0.1 µM, first compound 0.949 µM.
Setting [9] is: second compound 0.1 µM, first compound 3 µM.
Setting [10] is: second compound 0.316 µM, first compound 0.00949 µM.
The mark [11] stands for this setting: second compound 0.316 µM, first compound 0.03 µM.
Where [12] appears, read: second compound 0.316 µM, first compound 0.0949 µM.
Where [13] appears, read: second compound 0.316 µM, first compound 0.3 µM.
Where [14] appears, read: second compound 0.316 µM, first compound 0.949 µM.
Where [15] appears, read: second compound 0.316 µM, first compound 3 µM.
Where [16] appears, read: second compound 1 µM, first compound 0.00949 µM.
Setting [17] is: second compound 1 µM, first compound 0.03 µM.
Setting [18] is: second compound 1 µM, first compound 0.0949 µM.
Where [19] appears, read: second compound 1 µM, first compound 0.3 µM.
Where [20] appears, read: second compound 1 µM, first compound 0.949 µM.
[21] abbreviates: second compound 1 µM, first compound 3 µM.

Broadly, the IC50 is the concentration at which inhibition is half-maximal. Broadly, the viability, T/C is the result in the treated group divided by that in the control group, in per cent. With `CCN1C(C(=O)NC23CCC(C(=O)O)(CC2)CC3)C(c2cccc(Cl)c2F)C2(C(=O)Nc3cc(Cl)ccc32)C12CCCCC2` (centres undefined) + CNC(C)C(=O)NC1CN(S(=O)(=O)c2cccc(S(=O)(=O)N3CCC4CCC(C(=O)NC(c5ccccc5)c5ccccc5)N4C(=O)C(NC(=O)C(C)NC)C3)c2)CCC2CCC(C(=O)NC(c3ccccc3)c3ccccc3)N2C1=O, the IC50 by setting is: (curve of first compound, second compound 0.01 µM) over 3000 nM; (curve of first compound, second compound 0.0316 µM) over 3000 nM; under setting [1], over 3000 nM; under setting [2], over 3000 nM; under setting [3], over 3000 nM. Besides, the viability, T/C (second compound 0.01 µM, first compound 0.00949 µM) was 92.6%; the viability, T/C (second compound 0.01 µM, first compound 0.03 µM) is 96.2%; the viability, T/C (second compound 0.01 µM, first compound 0.0949 µM) is 94.8%; the viability, T/C (second compound 0.01 µM, first compound 0.3 µM) is 98%; the viability, T/C (second compound 0.01 µM, first compound 0.949 µM) was 106%; the viability, T/C (second compound 0.01 µM, first compound 3 µM) is 101%. Also, the viability, T/C is 84.8% (second compound 0.0316 µM, first compound 0.00949 µM); 89% (second compound 0.0316 µM, first compound 0.03 µM); 80.7% (second compound 0.0316 µM, first compound 0.0949 µM); 84.8% (second compound 0.0316 µM, first compound 0.3 µM); 83.4% (second compound 0.0316 µM, first compound 0.949 µM); 93.8% (second compound 0.0316 µM, first compound 3 µM). The viability, T/C is 88.6% under setting [4]; 87.9% under setting [5]; 88.6% under setting [6]; 84.8% under setting [7]; 90.7% under setting [8]; 86.7% under setting [9]. In addition, the viability, T/C is 84.4% under setting [10]; 85% under setting [11]; 79% under setting [12]; 84.2% under setting [13]; 94.8% under setting [14]; 89.6% under setting [15]. Besides, the viability, T/C under setting [16] was 97.2%; the viability, T/C under setting [17] is 100%; the viability, T/C under setting [18] is 86.9%; the viability, T/C under setting [19] was 86.9%; the viability, T/C under setting [20] is 90.1%; the viability, T/C under setting [21] is 85.2%.
For the molecule `NC(=O)C(=Cn1cnc(-c2cc(C(F)(F)F)cc(C(F)(F)F)c2)n1)c1cncnc1`, the viability, T/C is 102% and 107% and 95.8% (compound 0.000949 µM); 105% and 93.1% and 99.5% (compound 0.003 µM); 88.8% and 83.2% and 86.8% (compound 0.00949 µM); 89.3% and 78.8% and 86% (compound 0.03 µM); 78.5% and 71.5% and 81.5% (compound 0.0949 µM); 45.6% and 40.4% and 54.9% (compound 0.3 µM). Under “curve of compound”, the concentration for half-maximal inhibition (IC50) is 265 nM and 212 nM and > 300 nM.
Consider `Cc1nc(N2CCC3(CC2)COC(C)C3N)c(CO)nc1Sc1ccnc(N)c1Cl` (centres undefined) + Cc1c(S(C)(=O)=O)c(-c2cc(F)cc(N3CCN(c4ccc(NS(=O)(=O)c5ccc(NC(CCN6CCC(C(=O)OCCCP(=O)(O)O)CC6)CSc6ccccc6)c(S(=O)(=O)C(F)(F)F)c5)cc4)CC3)c2)c(-c2ccc(Cl)cc2)n1C(C)C, for which the IC50 is 1900 nM under setting [1]; 1130 nM under setting [2]; 1190 nM under setting [3]; 782 nM (curve of first compound, second compound 3.16 µM); 2850 nM (curve of first compound, second compound 10 µM). Further, the viability, T/C reads like this: under setting [4], 96.4%; under setting [5], 83.9%; under setting [6], 81.7%; under setting [7], 62.8%; under setting [8], 55.7%; under setting [9], 46.9%. In addition, the viability, T/C runs as follows: under setting [10], 95.8%; under setting [11], 85.1%; under setting [12], 73.9%; under setting [13], 55.6%; under setting [14], 55.2%; under setting [15], 42.9%. Besides, the viability, T/C is, setting by setting: under setting [16], 78.1%; under setting [17], 76.9%; under setting [18], 72.4%; under setting [19], 68.4%; under setting [20], 51.1%; under setting [21], 42.6%. Also, the viability, T/C by setting is: (second compound 3.16 µM, first compound 0.00949 µM) 87.7%; (second compound 3.16 µM, first compound 0.03 µM) 85%; (second compound 3.16 µM, first compound 0.0949 µM) 72.5%; (second compound 3.16 µM, first compound 0.3 µM) 59.9%; (second compound 3.16 µM, first compound 0.949 µM) 45.6%; (second compound 3.16 µM, first compound 3 µM) 46.9%. The viability, T/C (second compound 10 µM, first compound 0.00949 µM) is 105%; the viability, T/C (second compound 10 µM, first compound 0.03 µM) is 94%; the viability, T/C (second compound 10 µM, first compound 0.0949 µM) is 88.6%; the viability, T/C (second compound 10 µM, first compound 0.3 µM) was 87.3%; the viability, T/C (second compound 10 µM, first compound 0.949 µM) was 64.8%; the viability, T/C (second compound 10 µM, first compound 3 µM) was 49%.
Regarding `O=C(c1ccc(F)c(F)c1Nc1ccc(I)cc1F)N1CC(O)([C@@H]2CCCCN2)C1`, the viability, T/C is 97.8% and 97.6% and 103% (compound 0.00316 µM); 96.5% and 97.5% and 102% (compound 0.01 µM); 69.4% and 74.8% and 72.2% (compound 0.0316 µM); 53% and 61.5% and 50.5% (compound 0.1 µM); 44.4% and 51% and 47.7% (compound 0.316 µM); 30.7% and 36% and 33.2% (compound 1 µM). Further, under “curve of compound”, the IC50 is 134 nM and 265 nM and 103 nM.

Values taken from PubChem BioAssay AID1963436 (Molecular Pharmacology Branch, DTP, NCI, 2024).
